Assay results published in US11453671B2, “Pyrazolopyrimidine inhibitors of JAK kinases and uses thereof” (Genentech, Inc., priority 2020, dated 2022).
Like-named read-outs stand apart in the source and are kept apart here.

Columns and labels:
[1] = Mouse lung tissue binding (equilibrium dialysis, RED); format: in vitro ADME; details: for Lung tissue binding, %: Table 5, sulfone-sulfide analog pairs; for Mouse LTB %: mouse lung tissue binding, % bound (Table 3)
Experimental: Mouse lung tissue binding. A high bound fraction or percentage of JAK1/JAK2 inhibitors to lung tissue may be undesirable since it can reduce the amount of free drug available to inhibit JAK1 or JAK2.
(a) Tissue binding experiments were performed in triplicate (n=3) using a Single-Use RED Plate by following the standard protocol. Initially, individual drugs were spiked to tissue homogenates (pH 7.4) to achieve a final concentration of 1 μM, and then 300 μL of drug-tissue homogenate mixtures were transferred to the donor wells of the RED plate which was pre-loaded with 500 μL phosphate buffer saline (133 mM) on the receiver wells. The RED plate was sealed with a gas permeable membrane and placed in a shaking incubator (450 rpm, VWR Symphony™) for 6 hr at 37° C. with 5% CO2. At the end of incubation, aliquots of 30 μL samples were taken out of the RED device and matrix equalized with an equal volume of tissue homogenates or buffer, and resulting samples were then immediately quenched with ice cold acetonitrile (sample:acetonitrile 1:4) containing either propranolol or labetalol as an internal standard. After shaking for 15 min at 500 rpm on a Thermo Scientific Compact Digital MicroPlate Shaker, all samples were then subjected to centrifugation at 3700 rpm for 15 min (Beckman Coulter Allegra X 12R) to remove plasma protein. Subsequently, supernatants were collected and then diluted with an equal volume of water prior to LC-MS/MS analysis.
(b) In an alternate procedure, the extent of lung tissue binding of test compound to mouse lung homogenate may also be determined by equilibrium dialysis using Pierce RED (rapid equilibrium dialysis) devices (Fisher Scientific 89811 & 89809). A 10 mM solution of compound in DMSO was prepared and diluted to 1 mM with DMSO. An aliquot of this 1 mM (4 μL) was added into lung homogenate (dilution factor of 1:9, lung tissue:potassium phosphate buffer (0.05 M, pH 7.4)) to give a final compound incubation concentration of 5 μM with solvent accounting for 0.5% (v/v) of the final incubation volume.
For each assay, the percentage lung tissue bound was determined in triplicate. Lung homogenate (200 μL) was loaded into one side of a RED device insert, in triplicate, and 350 μL of potassium phosphate buffer was loaded into the other side. The RED devices were sealed and incubated for 4 hours at ca. 37° C. on an orbital shaker (˜150 rpm).
Following incubation, an aliquot of lung homogenate (8 μL) and an aliquot of dialysate (72 μL) were matrix matched (lung homogenate with 72 μL phosphate buffer, dialysate with 8 μL lung homogenate) ahead of analysis. Protein was precipitated from the samples with the addition of 160 μL of acetonitrile containing internal standard. The same matrix matching and protein precipitation procedure was performed on lung homogenate aliquots sampled at the start of the experiment (t=0 min samples), for the assessment of the mass balance. The quenched samples were centrifuged (4000 rpm, 30 min, 4° C.) and the resultant supernatant diluted with water (3:1 (v/v), supernatant: water) and the samples analysed for parent compound by liquid chromatography mass spectrometry assay.
The unbound fraction (fu) in lung homogenate was determined from the ratio of the dialysate to homogenate peak area, corrected to take into account the lung homogenate dilution (D) to enable an estimate of whole lung tissue binding using the following equations: Undiluted fu=(1/D)/[((1/Apparent fu)−1)+(1/D)] Corrected fraction bound (%)=(1-undiluted fu)*100

[2] = test system: JAK1: IL-13-stimulated STAT6 phosphorylation in BEAS-2B cells; assay: P-STAT6 BEAS-2B+IL-13 Cell Assay; format: cell-based, human; details: IL-13 stimulation, read-out: Cellular JAK1 PSTAT6 BEAS2B + IL13 IC50
In short: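 BEAS-2B cells in BEGM preincubated 1 h at 37 °C with 10-point, 1:2 compound dilutions, then stimulated 15 min with IL-13 (250 ng/mL stock). Lysate pSTAT6 (Tyr641) captured on total-STAT6 antibody and read by MSD electrochemiluminescence; IC50 from four-parameter logistic fit.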

[3] = test system: JAK1 pathway: P-STAT6 in TF-1 human erythroleukemia cells + IL-13; assay: P-STAT6 TF-1+Interleukin-13 (IL-13) assay; format: cell-based; details: Homo sapiens, TF-1, TF-1 cells, IL-13 stimulation; read-out: Cellular JAK1 PSTAT6 TF-1 + IL13 IC50
Experimental: (§1) TF-1 human erythroleukemia cells (ATCC®; Manassas, Va.; Catalog No. CRL-2003™) were grown in Roswell Park Memorial Institute (RPMI) medium supplemented with 10% heat-inactivated fetal bovine serum (FBS), 2 ng/mL granulocyte-macrophage colony-stimulating factor, 1×non-essential amino acids (NEAA), and 1 mM sodium pyruvate. The day before the assay, the cultures were transferred to Opti-MEM™, 1×NEAA, 1 mM sodium pyruvate, and 0.5% charcoal-stripped FBS (starve medium). Inhibitor stock solutions (5 mM in DMSO) were serially diluted 1:2 in DMSO to generate a 10-point concentration titration (at 500×test concentration), which was further diluted by a 50-fold dilution in Assay Medium (RPMI containing 1×NEAA and 1 mM sodium pyruvate) to generate a 10×concentration titration (in 2% DMSO). The cells (300,000 cells/well in 35 μL of Assay Medium) were seeded in 384-well Greiner plates. Diluted inhibitor at 10×concentration (5 μL) was added to the cells and the plates were incubated for 30 minutes at 37° C. in a humidified incubator. Cells were stimulated with the human recombinant cytokine at the respective EC90 concentrations, as previously determined for each individual lot. For the phosphorylated signal transducer and activator of transcription 6 (P-STAT6) TF-1+Interleukin-13 (IL-13) assay, 10 μL of 250 ng/mL IL-13 (R&D Systems; Minneapolis, Minn.) was added to the cells, which were then incubated for 10 minutes at 37° C. For the P-STAT5 TF-1+Erythropoietin (EPO) assay, 10 μL of 110 IU/mL EPO (Gibco Life Technologies, Catalog No. PHC2054) was added to the cells, which were then incubated for 30 min at 37° C. For both assays, the incubation was followed by addition to the cells of 5 μL of ice-cold 10× cell lysis buffer (Cell Signaling Technologies; Danvers, Mass.; Catalog No. 9803S) containing 1 mM phenylmethylsulfonyl fluoride (PMSF). Assay plates were frozen at −80° C. for a minimum of 1 horn. In the IL-13 assay, P-STAT6 was measured by coating goat anti-rabbit (GAR) plates (Meso Scale Discovery [MSD]; Rockville, Md.; Catalog No. MSD L21RA-1) with rabbit anti-human total STAT6 antibody (Cell Signaling Technologies; Catalog No. 9362S), incubating the cell lysates in the coated plates overnight at 4° C., and then detecting with mouse anti-P-STAT6 (Tyr641) Clone 16E12 antibody (MilliporeSigma; Burlington, Mass.; Catalog No. 05-590, custom labeled by MSD with SULFO-tag) using standard MSD plate processing, washing, and detection protocols. In the EPO assay, P-STAT5 was detected using the phospho-STAT5a,b Whole Cell Lysate Kit (MSD; Catalog No. K150IGD-1). The electrochemiluminescence (ECL) signal of wells was read on the MESO SECTOR S600 (MSD) reader.

[4] = molecular target: T1, recombinant human JAK1 kinase domain protein (Residues 854-1154) (Homo sapiens, UniProt P23458); assay: JAK1 biochemical assay (microfluidic mobility shift, peptide phosphorylation); details: 25 μM ATP, 1 nM total JAK1; read-out: Enzyme JAK1 Ki
T1 construct: human JAK1 kinase domain protein (Residues 854-1154); purchased Proteros Biostructures GmbH (Martinsried, Germany); host or cells: insect cells
From the text: JAK1 and JAK2 Biochemical Assays

[5] = test system: JAK2 pathway: P-STAT5 in TF-1 human erythroleukemia cells + EPO; assay: P-STAT5 TF-1+Erythropoietin (EPO) assay; format: cell-based; details: EPO stimulation, read-out: Cellular JAK2 PSTAT5 TF-l + EPO IC50
Experimental: as §1

[6] = molecular target: Recombinant human JAK2 kinase domain protein (Residues 812-1132) (Homo sapiens, UniProt O60674); assay: JAK2 biochemical assay (microfluidic mobility shift, peptide phosphorylation); details: Enzyme JAK2 Ki (nM), 25 μM ATP, 0.2 nM total JAK2
Chain of Recombinant human JAK2 kinase domain protein (Residues 812-1132) (O60674 812-1132): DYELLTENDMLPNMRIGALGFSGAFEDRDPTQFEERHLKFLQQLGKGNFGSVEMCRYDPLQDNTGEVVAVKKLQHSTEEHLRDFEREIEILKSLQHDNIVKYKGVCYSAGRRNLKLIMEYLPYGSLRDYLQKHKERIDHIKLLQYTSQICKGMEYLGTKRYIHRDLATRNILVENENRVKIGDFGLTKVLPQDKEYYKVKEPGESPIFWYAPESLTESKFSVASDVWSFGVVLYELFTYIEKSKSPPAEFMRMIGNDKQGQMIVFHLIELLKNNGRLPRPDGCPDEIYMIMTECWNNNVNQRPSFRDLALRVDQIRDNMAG

T1 sequence (P23458 854-1154): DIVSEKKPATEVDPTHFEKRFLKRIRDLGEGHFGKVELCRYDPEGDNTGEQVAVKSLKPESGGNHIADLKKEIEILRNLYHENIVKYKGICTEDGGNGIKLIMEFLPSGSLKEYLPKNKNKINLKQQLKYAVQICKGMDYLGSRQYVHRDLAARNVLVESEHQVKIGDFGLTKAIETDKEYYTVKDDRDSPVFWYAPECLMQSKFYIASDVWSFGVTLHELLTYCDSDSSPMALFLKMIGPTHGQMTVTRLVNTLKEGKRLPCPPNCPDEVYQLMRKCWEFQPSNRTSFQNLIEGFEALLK

| Lung tissue binding, % [1] [%] | IC50 [3] [nM] | Ki [4] [nM] | IC50 ([5]; Homo sapiens, TF-1, TF-1 cells) [nM] | Ki [6] [nM] | Mouse LTB % [1] [%] | IC50 ([5]; TF-1 cells) [nM] | SMILES | IC50 ([2]; Homo sapiens, BEAS-2B) [nM] | IC50 [2] [nM] |
| --- | --- | --- | --- | --- | --- | --- | --- | --- | --- |
| 96.9 |  |  |  |  |  |  | CSc1ccc(OC(F)F)c(-c2nn(CC#N)cc2NC(=O)c2cnn3cccnc23)c1 [reference compound] |  |  |
|  | 190 | 0.81 | 200 | 0.77 |  |  | CN1CC(n2cc(S(=O)(=O)c3ccc(OC(F)F)c(-c4nn(C)cc4NC(=O)c4cnn5cccnc45)c3)cn2)C1 [Example 61, N-[3-[2-(difluoromethoxy)-5-[1-(1-methylazetidin-3-yl)pyrazol-4-yl]sulfonyl-phenyl]-1-methyl-pyrazol-4-yl]pyrazolo[1,5-a]pyrimidine-3-carboxamide] | 34 |  |
|  | 27 | 1.7 | 160 | 1.9 |  |  | CN(C)CCn1cc(NC(=O)c2cnn3cccnc23)c(-c2cc(S(=O)(=O)C3CC3)ccc2OC(F)F)n1 [Example 50, N-[3-[5-cyclopropylsulfonyl-2-(difluoromethoxy)phenyl]-1-[2-(dimethylamino)ethyl]pyrazol-4-yl]pyrazolo[1,5-a]pyrimidine-3-carboxamide] | 50 |  |
|  | 24 | 0.89 | 32 | 0.86 |  |  | C[C@@H](Cn1cc(S(=O)(=O)c2ccc(OC(F)F)c(-c3nn(C)cc3NC(=O)c3cnn4cccnc34)c2)cn1)N(C)C [Example 58, N-[3-[2-(difluoromethoxy)-5-[1-[(2S)-2-(dimethylamino)propyl]pyrazol-4-yl]sulfonyl-phenyl]-1-methyl-pyrazol-4-yl]pyrazolo[1,5-a]pyrimidine-3-carboxamide] | 40 |  |
|  |  |  |  |  | 78.4 |  | CC(O)C(C)S(=O)(=O)c1ccc(OC(F)F)c(-c2nn(C)cc2NC(=O)c2cnn3cccnc23)c1 (single isomer, unassigned) [Example 69, N-[3-[2-(difluoromethoxy)-5-(2-hydroxy-1-methyl-propyl)sulfonyl-phenyl]-1-methyl-pyrazol-4-yl]pyrazolo[1,5-a]pyrimidine-3-carboxamide] |  | 77 |
|  | 71 | 1.8 |  | 1.1 |  | 120 | Cn1cc(NC(=O)c2cnn3cccnc23)c(-c2cc(S(=O)(=O)C3CCCNC3)ccc2OC(F)F)n1 (single isomer, unassigned) [Example 36, N-[3-[2-(difluoromethoxy)-5-(3-piperidylsulfonyl)phenyl]-1-methyl-pyrazol-4-yl]pyrazolo[1,5-a]pyrimidine-3-carboxamide] |  |  |
| 97.4 |  |  |  |  |  |  | Cn1cc(NC(=O)c2cnn3cccnc23)c(-c2cc(SC3COC3)ccc2OC(F)F)n1 [reference compound] |  |  |
|  | 2.6 | 0.42 | 21 | 0.24 |  |  | Cn1cc(NC(=O)c2cnn3cccnc23)c(-c2cc(S(=O)(=O)c3cccnc3)ccc2OC(F)F)n1 [Example 42, N-[3-[2-(difluoromethoxy)-5-(3-pyridylsulfonyl)phenyl]-1-methyl-pyrazol-4-yl]pyrazolo[1,5-a]pyrimidine-3-carboxamide] | 30 |  |
| 97 |  |  |  |  |  |  | Cn1cc(Sc2ccc(OC(F)F)c(-c3nn(C)cc3NC(=O)c3cnn4cccnc34)c2)cn1 [reference compound] |  |  |
|  |  | 0.52 |  | 0.39 | 91.3 |  | CNCCn1cc(S(=O)(=O)c2ccc(OC(F)F)c(-c3nn(C)cc3NC(=O)c3cnn4cccnc34)c2)cn1 [Example 48, N-[3-[2-(difluoromethoxy)-5-[1-[2-(methylamino)ethyl]pyrazol-4-yl]sulfonyl-phenyl]-1-methyl-pyrazol-4-yl]pyrazolo[1,5-a]pyrimidine-3-carboxamide] | 130 |  |
|  | 24 | 1.1 | 170 | 2.5 |  |  | CN1CCC[C@@H]1Cn1cc(NC(=O)c2cnn3cccnc23)c(-c2cc(S(=O)(=O)C3CC3)ccc2OC(F)F)n1 (racemic) [Example 60, N-[3-[5-cyclopropylsulfonyl-2-(difluoromethoxy)phenyl]-1-[[rac-(2R)-1-methylpyrrolidin-2-yl]methyl]pyrazol-4-yl]pyrazolo[1,5-a]pyrimidine-3-carboxamide] | 44 |  |
|  | 6.3 | 0.56 | 12 | 0.25 |  |  | CC(C)S(=O)(=O)c1ccc(OC(F)F)c(-c2nn(C)cc2NC(=O)c2cnn3cccnc23)c1 [Example 1, N-[3-[2-(difluoromethoxy)-5-isopropylsulfonyl-phenyl]-1-methyl-pyrazol-4-yl]pyrazolo[1,5-a]pyrimidine-3-carboxamide] | 31 |  |
